Patent US20050244335A1, “Methods and compositions related to increasing antitumor activity of chemotherapeutic agents” (priority 2004, published 2005)
Read-outs that look alike come from different tables or passages of the source.

Experiments:
[1] = system: human lung cancer A549 xenografts; conditions: A549 model
Text: (§1) Cell Culture. […] All media contained 1% penicillin-streptomycin.
(§2) Data and Statistical Analysis.

human cancer xenografts [2] = conditions: in vivo
Protocol: (§4) Human cancer xenograft models were established using the methods reported previously (26-29). When confluence reached 80%, cultured LS174T, MCF-7, MDA-MB-468, U87-MG, A549 and H1299 cells were harvested from the monolayer cultures, washed with the above indicated serum-free medium and resuspended in the same medium with Matrigel® basement membrane matrix at a 3:1 ratio, and then injected subcutaneously (s.c.) (5×10^6 cells, total volume 0.2 mL) into the left inguinal area of the nude mice. The animals were monitored for activity, physical condition, determination of body weight, and measurement of tumor growth. Tumor growth was determined by caliper measurement in two perpendicular diameters of the implant every other day. Tumor weight (in g) was calculated by the formula, 1/2a×b^2 where “a” is the long diameter and “b” is the short diameter (in cm).
(§5) Nude mice bearing human cancer xenografts were randomly divided into various treatment and control groups (5 mice/group). In treatment groups, animals were pre-treated with DEX subcutaneously (s.c., 0.1 mg/day for 5 days, Day −4-0) or saline (as controls). Carboplatin was administered intraperitoneally (i.p.) at a single dose of 120 mg/kg (360 mg/m^2) on day 0.
(§6) The antitumor activity (tumor mass) and peripheral blood counts were expressed as mean and standard deviations and the significance of differences were analyzed by ANOVA.
(§7) When mean tumor mass reached 44-68 mg, animals were treated with s.c. DEX at a dose of 0.1 mg/day for 5 days, followed by chemotherapy.

[3] = system: human breast cancer MCF-7 xenografts; experiment: In vivo chemotherapy, breast cancer MCF-7 xenograft model in nude mice; conditions: MCF-7 model
Text: as §1, §2

[4] = system: human lung cancer H1299 xenografts; experiment: In vivo chemotherapy, lung cancer H1299 xenograft model in nude mice
Text: as §1, §2

CD-1 mice [5] = system: CD-1 mice
Protocol: sing a protocol similar to the above survival study, the effects of DEX on chemotherapy-induced bone marrow toxicity were studied in male CD-1 mice. DEX (s.c., 0.1 mg/mouse/day for 5 days) was given prior to (day −4-0) or after (day 0 to 4) a single i.p. dose of carboplatin (600 mg/m^2 or 200 mg/kg). On days −4, 0, 3, 7, 14, peripheral blood samples (60 μL) were obtained from postorbital venous plexus using a microcapillary tube coated with 5% ethylenediaminetetraacetic acid and cell counts were obtained using a Coulter counter. Wright's stained peripheral blood smears were examined by light microscopy and the percentage of lymphocytes, granulocytes and monocytes were recorded.
(§3) The significance of the differences among treated groups and controls were analyzed by ANOVA.
To examine possible mechanisms responsible for reduced mortality in mice pre-treated with DEX, peripheral blood counts before and after chemotherapy were determined. […] The same experimental design was used to examine the dose-schedule effects of dexamethasone prevention of neutropenia.

human cancer xenografts [6] = experiment: Six murine-human cancer xenograft models overall: efficacy and toxicity
Protocol: as §4, §5, §6, §7

[7] = system: human colon cancer LS174T xenografts; experiment: In vivo chemotherapy, colon cancer LS174T xenograft model in nude mice; conditions: DEX s.c. 0.1 mg/day 5 days, carboplatin 120 mg/kg i.p. day 0
Text: as §1, §2

NSCLC patients = experiment: Clinical trial of Dex pretreatment with carboplatin and gemcitabine in stage 4 NSCLC patients; type: in vivo, human; conditions: for AGC nadir ratio (course 2 ÷ course 1), M±SE: 4 days prior to and day of chemotherapy
Protocol: Patients were randomized at a 1:2:2 ratio to receive no Dex (Cohort 1), or Dex 8 mg bid (Cohort 2) or 16 mg bid (Cohort 3), 4 days prior to and the day of each chemotherapy treatment. Dex was given only in courses 2, 3, and 4 so that toxicities between course 1 vs. course 2 comparisons could be made.

CD-1 mice [8] = type: in vivo; conditions: for survival rate: carboplatin 600 mg/m^2 (200 mg/kg) i.p., 14-day
Protocol: Male CD-1 mice, randomly divided into multiple treatment and control groups (10 mice/group), were given DEX by subcutaneous (s.c.) injection at doses of 0.01, 0.05, 0.1, 0.3 mg/mouse/day or saline (as controls) for 5 days prior to (day −4 to 0) or after (day 0 to 4) a single intraperitoneal (i.p.) injection of carboplatin (600 mg/m^2 or 200 mg/kg) on day 0. Animals were monitored daily for activity, physical condition, body weight and 14-day survival rates.
as §3

[9] = system: human glioma U87-MG xenografts; conditions: U87MG model
Protocol: Cell Culture. The cell lines of human cancers (colon LS174T, breast MCF-7 and MDA-MB-468, and lung A549) and glioma (U87-MG) were obtained from American Type Culture Collection (Rockville, Md.) and cultured according to their instruction. LS174T cells were cultured in modified Earle's medium with 0.1 mM nonessential amino acids and Earle's balanced salt solution containing 10% FBS. MCF-7 cells were grown in modified Earle's medium containing 10% FBS, 1 mM non-essential amino acids and Earle's balanced salt solution, 1 mM sodium pyruvate and 10 mg/L bovine insulin. MDA-MB-468 cells were grown in Dulbecco's modified Eagle's/F-12 Ham's medium (1:1 mixture) containing 10% FBS. […]
Animal Tumor Models. […] The animals were monitored for activity, physical condition, determination of body weight, and measurement of tumor growth. Tumor growth was determined by caliper measurement in two perpendicular diameters of the implant every other day. Tumor weight (in g) was calculated by the formula, 1/2a×b^2 where “a” is the long diameter and “b” is the short diameter (in cm). […]
Data and Statistical Analysis. The antitumor activity (tumor mass) and peripheral blood counts were expressed as mean and standard deviations and the significance of differences were analyzed by ANOVA. […]

[10] = Pharmacokinetics of gemcitabine in nude mice bearing H1299 xenografts; type: in vivo; conditions: for AUC / CL / Cmax / Vss: nude mice bearing H1299 xenografts, gemcitabine 160 mg/kg iv
Protocol: Female nude mice bearing human lung cancer H1299 xenograft were used (3 mice for each time point). […] Bone marrow cells were harvested by using the same method described above. […] In brief, plasma samples (50 μL) were mixed with 5 mL of scintillation solvent (Beckman) to determine total radioactivity. […] Data and Statistical Analysis.

[11] = Pharmacokinetics and tissue distribution of gemcitabine in CD-1 mice; type: in vivo; conditions: gemcitabine 160 mg/kg iv
Protocol: At various times (5, 15, and 30 min, 1, 2, 4, 8, and 24 hr after drug dosing), plasma, bone marrow, and tissues including liver, kidneys, heart, lungs, spleen, brain and tumor were collected and treated as described above.
In brief, plasma samples (50 μL) were mixed with […] of scintillation solvent (Beckman) to determine total radioactivity. Tissue homogenates (50-200 μL) were mixed with 200 μL solubilizer (TS-2) overnight, neutralized with 400 μL of 0.3% acetic acid, and then mixed with scintillation solvent (5 mL) to quantitate the total radioactivity.
as §3

C[C@@H]1C[C@H]2[C@@H]3CCC4=CC(=O)C=C[C@]4(C)[C@@]3(F)[C@@H](O)C[C@]2(C)[C@@]1(O)C(=O)CO [DEX, dexamethasone]
increase of therapeutic effectiveness of carboplatin by DEX pretreatment [1]: 50%
increase of therapeutic effectiveness of gemcitabine by DEX pretreatment [1]: 60%
effect of DEX pretreatment on toxicity profiles of the two chemotherapeutic agents (human cancer xenografts [2]): no effect on toxicity profiles
increase of efficacy of carboplatin by DEX pretreatment [3]: 66%
increase of efficacy of gemcitabine by DEX pretreatment [3]: 60%
increase of anticancer effects of carboplatin by DEX pretreatment [4]: 70%
optimal dose for prevention of neutropenia (CD-1 mice [5]; CD-1 mice, DEX before carboplatin 360 mg/m^2): 0.1 mg/kg
peripheral blood counts, effect of dexamethasone (CD-1 mice [5]; mouse, in vivo): induction of transient granulocytosis and lymphopenia
increase of efficacy of carboplatin, gemcitabine or combination by DEX pretreatment (human cancer xenografts [6]; all xenograft models tested): 2-4 fold
increase of therapeutic effect of carboplatin by DEX pretreatment [7]: approximately 80%
Responses: number of PD (NSCLC patients; Cohort 2 (n=8), Dex 8 mg bid): 1
Responses: number of PR (NSCLC patients; Cohort 2 (n=8), Dex 8 mg bid): 7
platelet nadir ratio (course 2 ÷ course 1), M±SE (NSCLC patients; Cohort 2: Dex 8 mg bid): 2.68±0.6
AGC nadir ratio (course 2 ÷ course 1), M±SE (NSCLC patients; Cohort 2: Dex 8 mg bid): 2.68±0.8
Responses: number of PD (NSCLC patients; Cohort 3 (n=10), Dex 16 mg bid): 1
Responses: number of PR (NSCLC patients; Cohort 3 (n=10), Dex 16 mg bid): 8
Responses: number of SD (NSCLC patients; Cohort 3 (n=10), Dex 16 mg bid): 1
platelet nadir ratio (course 2 ÷ course 1), M±SE (NSCLC patients; Cohort 3: Dex 16 mg bid): 2.72±0.6
AGC nadir ratio (course 2 ÷ course 1), M±SE (NSCLC patients; Cohort 3: Dex 16 mg bid): 2.94±0.7
reduction of toxicity, data trends (NSCLC patients; Dex 16 mg): effective in reducing toxicity
Dex DLTs (NSCLC patients; NSCLC patients, Dex 8 or 16 mg bid): No Dex DLTs were observed
death (CD-1 mice [8]; CD-1 mice, DEX alone s.c. 0.01-0.3 mg/mouse/day for 5 days): No death occurred
survival rate (CD-1 mice [8]; CD-1 mice, DEX pretreatment 0.01 mg/mouse/day for 5 days): 40%
survival rate (CD-1 mice [8]; CD-1 mice, DEX pretreatment s.c. 0.1 mg/mouse/day for 5 days): 80%
mortality of treated animals (CD-1 mice [8]; combination treatment with carboplatin and gemcitabine, DEX pretreatment): reduced the mortality of treated animals
increase of therapeutic effectiveness of combination therapy of carboplatin and gemcitabine by DEX pretreatment [9]: 130%

Nc1ccn([C@@H]2O[C@H](CO)[C@@H](O)C2(F)F)c(=O)n1 [gemcitabine]
increase in tumor AUC by DEX pretreatment ([10]; H1299 nude mice): 60%
AUC ([10]; bone marrow, DEX (+)): 16.41 µg·h/mL
CL ([10]; bone marrow, DEX (+)): 9.75 mL/g/h
Cmax ([10]; bone marrow, DEX (+)): 14.36 µg/mL
Vss ([10]; bone marrow, DEX (+)): 11.14 mL/g
AUC ([10]; bone marrow, DEX (−)): 21.10 µg·h/mL
CL ([10]; bone marrow, DEX (−)): 7.58 mL/g/h
Cmax ([10]; bone marrow, DEX (−)): 18.53 µg/mL
Vss ([10]; bone marrow, DEX (−)): 8.64 mL/g
AUC ([10]; liver, DEX (+)): 107.85 µg·h/mL
CL ([10]; liver, DEX (+)): 1.48 mL/g/h
Cmax ([10]; liver, DEX (+)): 157.46 µg/mL
Vss ([10]; liver, DEX (+)): 1.02 mL/g
AUC ([10]; liver, DEX (−)): 123.27 µg·h/mL
CL ([10]; liver, DEX (−)): 1.30 mL/g/h
Cmax ([10]; liver, DEX (−)): 171.80 µg/mL
Vss ([10]; liver, DEX (−)): 0.93 mL/g
AUC ([10]; plasma, DEX (+)): 322.43 µg·h/mL
CL ([10]; plasma, DEX (+)): 0.50 mL/g/h
Cmax ([10]; plasma, DEX (+)): 237.16 µg/mL
Vss ([10]; plasma, DEX (+)): 9.90 mL/g
AUC ([10]; plasma, DEX (−)): 277.38 µg·h/mL
CL ([10]; plasma, DEX (−)): 0.58 mL/g/h
Cmax ([10]; plasma, DEX (−)): 286.72 µg/mL
Vss ([10]; plasma, DEX (−)): 5.96 mL/g
AUC ([10]; spleen, DEX (+)): 505.40 µg·h/mL
CL ([10]; spleen, DEX (+)): 0.32 mL/g/h
Cmax ([10]; spleen, DEX (+)): 179.42 µg/mL
Vss ([10]; spleen, DEX (+)): 0.89 mL/g
AUC ([10]; spleen, DEX (−)): 909.92 µg·h/mL
CL ([10]; spleen, DEX (−)): 0.18 mL/g/h
Cmax ([10]; spleen, DEX (−)): 221.99 µg/mL
Vss ([10]; spleen, DEX (−)): 0.72 mL/g
AUC ([10]; tumor, DEX (+)): 674.44 µg·h/mL
CL ([10]; tumor, DEX (+)): 0.23 mL/g/h
Cmax ([10]; tumor, DEX (+)): 46.66 µg/mL
Vss ([10]; tumor, DEX (+)): 12.72 mL/g
AUC ([10]; tumor, DEX (−)): 434.55 µg·h/mL
CL ([10]; tumor, DEX (−)): 0.37 mL/g/h
Cmax ([10]; tumor, DEX (−)): 49.15 µg/mL
Vss ([10]; tumor, DEX (−)): 9.01 mL/g
death (human cancer xenografts [6]; nude mice, carboplatin 120 mg/kg, gemcitabine 160 mg/kg i.p.): no death occurred
AUC ([11]; bone marrow, DEX (+)): 7.03 µg·h/mL
CL ([11]; bone marrow, DEX (+)): 22.76 mL/g/h
Cmax ([11]; bone marrow, DEX (+)): 15.82 µg/mL
Vss ([11]; bone marrow, DEX (+)): 10.12 mL/g
AUC ([11]; bone marrow, DEX (−)): 18.35 µg·h/mL
CL ([11]; bone marrow, DEX (−)): 8.72 mL/g/h
Cmax ([11]; bone marrow, DEX (−)): 16.12 µg/mL
Vss ([11]; bone marrow, DEX (−)): 9.93 mL/g
AUC ([11]; liver, DEX (+)): 124.80 µg·h/mL
CL ([11]; liver, DEX (+)): 1.28 mL/g/h
Cmax ([11]; liver, DEX (+)): 166.94 µg/mL
Vss ([11]; liver, DEX (+)): 0.96 mL/g
AUC ([11]; liver, DEX (−)): 123.68 µg·h/mL
CL ([11]; liver, DEX (−)): 1.29 mL/g/h
Cmax ([11]; liver, DEX (−)): 158.43 µg/mL
Vss ([11]; liver, DEX (−)): 1.01 mL/g
AUC ([11]; plasma, DEX (+)): 319.96 µg·h/mL
CL ([11]; plasma, DEX (+)): 0.50 mL/g/h
Cmax ([11]; plasma, DEX (+)): 253.68 µg/mL
Vss ([11]; plasma, DEX (+)): 10.81 mL/g
AUC ([11]; plasma, DEX (−)): 552.32 µg·h/mL
CL ([11]; plasma, DEX (−)): 0.29 mL/g/h
Cmax ([11]; plasma, DEX (−)): 264.13 µg/mL
Vss ([11]; plasma, DEX (−)): 16.64 mL/g
AUC ([11]; spleen, DEX (+)): 135.50 µg·h/mL
CL ([11]; spleen, DEX (+)): 1.18 mL/g/h
Cmax ([11]; spleen, DEX (+)): 193.29 µg/mL
Vss ([11]; spleen, DEX (+)): 0.83 mL/g
AUC ([11]; spleen, DEX (−)): 375.21 µg·h/mL
CL ([11]; spleen, DEX (−)): 0.43 mL/g/h
Cmax ([11]; spleen, DEX (−)): 196.84 µg/mL
Vss ([11]; spleen, DEX (−)): 0.81 mL/g
